Paper PMC9637228, “Elucidating host cell response pathways and repurposing therapeutics for SARS-CoV-2 and other coronaviruses” (Scientific Reports, 2022)
Entries after “also recorded” stand apart in the source; their conditions may differ. Counter-ions that a name gives are not always drawn. Like-named read-outs stand apart in the source and are kept apart here.

Experiments:
[1] = system: SARS-CoV-2; assay: microbe, parasite or virus in culture; format: cell-based; settings: for IC50: SARS-CoV-2 infected Vero cells; for anti-SARS-CoV-2 activity (in words): Vero cell assay
[2] = Cytotoxicity (cell viability) in the SARS-CoV-2 Vero cell assay; settings: African green monkey, Vero cells
[3] = system: HCoV-229E; assay: Anti-HCoV-229E compound testing in MRC5 cells (Cell-Titer Glo); format: cell-based; settings: for EC50: Human coronavirus 229E; for activity against HCoV-229E (in words): MRC5 cells
Description: (§1) Human lung fibroblast MRC5 cells were cultured in a 96-well plate at 10,000 cells/well in EMEM + 10% FBS overnight. The next day the culture medium was removed from each well and compounds in EMEM + 2% FBS + 0.5% DMSO were added. Each drug was tested on its own 96 well plate. Each plate contained 3 wells of uninfected cells without DMSO, 3 wells of uninfected cells with 0.5% DMSO, 3 wells of infected cells with no DMSO, and 3 wells of infected cells with 0.5% DMSO. Experimental compounds were tested in triplicate at each concentration. Tanespimycin, bortezomib, and homoharringtonine were tested using 2 µM starting concentration, 8-point, threefold serial dilution. After a 1-h pre-incubation with testing compounds, HCoV-229E or HCoV-OC43 viruses at an MOI of 0.01 were added to the culture with compounds for another 1 h. Cell-Titer Glo assay was added after additional incubation time with compounds of interest (HCoV-229E for 96 h and HCoV-OC43 for 120 h). Assay readout was performed using luminescence measurement on a Tecan Spark plate reader.
(§2) CC50 values were determined by applying nonlinear fit of luminescence readouts from uninfected, compound-treated wells against compound concentration. Likewise, EC50 values were determined by nonlinear fit of luminescence readouts from virus-infected, compound-treated wells. Nonlinear regression models were applied for derivation of EC50 and CC50 values respectively, based on built-in equations of Prism Version 8.2.1 (GraphPad Software, San Diego, CA). SI calculated as the ratio of CC50 to EC50.

[4] = system: HCoV-OC43; assay: Anti-HCoV-OC43 compound testing in MRC5 cells (Cell-Titer Glo); format: cell-based; settings: for activity against HCoV-OC43 (in words): MRC5 cells
Description: as §1, §2

[5] = human, in vivo
[6] = Cytotoxicity in uninfected, compound-treated MRC5 cells (Cell-Titer Glo); settings: human
[7] = system: Vero cells; assay: Cytotoxicity (cell viability) in the SARS-CoV-2 Vero cell assay; settings: Table 2 test
[8] = Clinical dosing estimation of compounds (clinical exposure, Cmax); settings: calculated from published Cmax and molecular weight
[9] = system: SARS-CoV-1; settings: 10 μM, Huh-7 cells; cited from earlier work
[10] = system: SARS-CoV-2; settings: 10 μM, Huh-7 cells; cited from earlier work
[11] = system: MERS-CoV; settings: 10 μM, Huh-7 cells; cited from earlier work
[12] = in vitro; settings: African green monkey, Vero cells
[13] = system: SARS-CoV-2; settings: read-out: reported IC50; cited from earlier work
[14] = Severe acute respiratory syndrome coronavirus 2, Vero, 24 h, Table 2 test (average reversal score predicted compounds)
[15] = Severe acute respiratory syndrome coronavirus 2, Vero, Round 1, 24 h, 1-h preincubation
[16] = Severe acute respiratory syndrome coronavirus 2, Vero, Round 2, 24 h, 1-h preincubation
[17] = Severe acute respiratory syndrome coronavirus 2, Vero, Round 2, 24 h, 1-h preincubation, read-out: IC50
[18] = Severe acute respiratory syndrome coronavirus 2, Vero, Round 1, 24 h, 1-h preincubation, read-out: IC50
[19] = MRC5 cells infected with HCoV-229E, MOI 0.01, 96 h, read-out: EC50
[20] = Betacoronavirus 1, MRC5 cells infected with HCoV-OC43, MOI 0.01, 120 h, read-out: EC50
[21] = uninfected MRC5 lung fibroblast cells

CCC(CC)COC(=O)[C@H](C)N[P@](=O)(OC[C@H]1O[C@@](C#N)(c2ccc3c(N)ncnn23)[C@H](O)[C@@H]1O)Oc1ccccc1 [Remdesivir]
IC50 [1, 14]: 8.58 µM | IC50 [1, 15]: 12.1 µM | IC50 [1, 16]: 7.45 µM | CC50 at 24 h ([2]; CC50, Round 1): > 50 µM | CC50 at 24 h ([2]; CC50, Round 2): > 50 µM | CC50 at 24 h ([2]; CC50, Table 2 test): > 50 µM

CC(C)c1cc(-c2n[nH]c(=O)n2-c2ccc3c(ccn3C)c2)c(O)cc1O [Ganetespib]
IC50 [1, 17]: 35.5 µM | anti-SARS-CoV-2 activity (in words) [1]: no activity; also recorded: neither tanespimycin nor a second generation HSP90 inhibitor ganetespib exhibited anti-viral efficacy | CC50 at 24 h ([2]; CC50, Round 2): 28.9 µM

Cc1nc(Nc2ncc(C(=O)Nc3c(C)cccc3Cl)s2)cc(N2CCN(CCO)CC2)n1 [Dasatinib]
IC50 [1, 18]: 19.7 µM | CC50 at 24 h ([2]; CC50, Round 1): 13.2 µM

CC(C)C[C@H](NC(=O)[C@H](Cc1ccccc1)NC(=O)c1cnccn1)B(O)O [Bortezomib]
IC50 [1, 18]: 1.39 µM | IC50 [1, 17]: 3.42 µM | anti-SARS-CoV-2 activity (in words) [1]: showed efficacy in controlling viral load | EC50 [3, 19]: 0.252 µM | activity against HCoV-229E (in words) [3]: no activity | activity against HCoV-229E (in words) ([3]; listed as bortezomib): did not find bortezomib to be effective | EC50 [4, 20]: 0.666 µM | activity against HCoV-OC43 (in words) [4]: no activity | activity against HCoV-OC43 (in words) ([4]; listed as bortezomib): did not find bortezomib to be effective | Clinical Exposure [5]: 0.29 µM | Clinical Exposure ([5]; iv): approximately 580 nM | CC50 at 24 h ([2]; CC50, Round 1): > 50 µM | CC50 at 24 h ([2]; CC50, Round 2): > 50 µM | CC50 at 96 h [6, 21]: 0.536 µM | CC50 at 120 h [6, 21]: 0.591 µM

N[C@@H]1CCCN(c2c(/C=C3\SC(=O)NC3=O)cccc2-c2ccccc2)C1 [AZD-1208]
IC50 ([1]; Table 2 test (average reversal score predicted compounds), read-out: IC50): 27.3 µM | CC50 [7]: > 50 µM

N[C@@H](CC(=O)N1CCn2c(nnc2C(F)(F)F)C1)Cc1cc(F)c(F)cc1F [Sitagliptin]
IC50 ([1]; Severe acute respiratory syndrome coronavirus 2, Vero, 24 h, Table 2 test (average reversal score predicted compounds), read-out: IC50): > 50 µM | anti-SARS-CoV-2 activity (in words) [1]: did not show meaningful anti-SARS-CoV-2 activity | CC50 at 24 h ([2]; CC50, Table 2 test): > 50 µM

CC[C@@H](C(N)=O)N1CCCC1=O [Levetiracetam]
IC50 [1, 14]: > 50 µM | anti-SARS-CoV-2 activity (in words) [1]: no anti-viral activity | anti-SARS-CoV-2 activity (in words) ([1]; listed as levetiracetam): did not show meaningful anti-SARS-CoV-2 activity; also recorded: did not result in a meaningful effect on viral production | CC50 at 24 h ([2]; CC50, Table 2 test): > 50 µM

Cc1ccc(Cl)c(Nc2ccccc2C(=O)O)c1Cl [Meclofenamic acid sodium salt]
CC50 at 24 h ([2]; CC50, Table 2 test): > 50 µM

CC(=O)Nc1cccc(-n2c(=O)n(C3CC3)c(=O)c3c(Nc4ccc(I)cc4F)n(C)c(=O)c(C)c32)c1 [Trametinib]
IC50 [1, 18]: 15 µM | CC50 at 24 h ([2]; CC50, Round 1): > 50 µM | Clinical Exposure [8]: 0.045 µM

C=CCNC1=C2C[C@@H](C)C[C@H](OC)[C@H](O)[C@@H](C)/C=C(\C)[C@H](OC(N)=O)[C@@H](OC)/C=C\C=C(/C)C(=O)NC(=CC1=O)C2=O [Tanespimycin]
IC50 [1, 17]: 31.3 µM | anti-SARS-CoV-2 activity (in words) [1]: no activity | anti-SARS-CoV-2 activity (in words) ([1]; listed as tanespimycin): neither tanespimycin nor a second generation HSP90 inhibitor ganetespib exhibited anti-viral efficacy | EC50 ([3]; MRC5): < 0.001 µM | EC50 ([3]; MRC5, 96 h): 0.0036 µM | activity against HCoV-229E (in words) [3]: effective | activity against HCoV-229E (in words) ([3]; listed as tanespimycin): highly potent | EC50 ([4]; Betacoronavirus 1, OC43, MRC5): < 0.001 µM | EC50 [4, 20]: 0.0019 µM | activity against HCoV-OC43 (in words) [4]: effective | activity against HCoV-OC43 (in words) ([4]; listed as tanespimycin): highly potent | inhibition of viral activities of SARS-CoV-1 [9]: effectively inhibited | inhibition of viral activities of SARS-CoV-2 [10]: effectively inhibited | inhibition of viral activities of MERS-CoV [11]: effectively inhibited | CC50 at 24 h ([2]; CC50, Round 2): > 50 µM | CC50 at 96 h [6]: 0.182 µM | CC50 at 120 h [6]: 0.253 µM

CCOC(=O)C1=C(C)NC(C)=C(C(=O)OCC)C1c1ccccc1/C=C/C(=O)OC(C)(C)C [Lacidipine]
IC50 [1, 18]: 14.9 µM | Clinical Exposure [5]: 0.003 to 0.013 µM | CC50 at 24 h ([2]; CC50, Round 1): 20.2 µM

Cc1cccc(C)c1OCC(=O)N[C@@H](Cc1ccccc1)[C@@H](O)C[C@H](Cc1ccccc1)NC(=O)[C@H](C(C)C)N1CCCNC1=O [Lopinavir]
IC50 [1, 14]: 12.6 µM | IC50 [1, 16]: 13.5 µM | CC50 at 24 h ([2]; CC50, Round 2): > 50 µM | CC50 at 24 h ([2]; CC50, Table 2 test): > 50 µM

COC(=O)C[C@](O)(CCCC(C)(C)O)C(=O)O[C@@H]1C(OC)=C[C@]23CCCN2CCc2cc4c(cc2[C@H]13)OCO4 [Homoharringtonine]
average EC50/IC50 ([1]; SARS-CoV-2, Vero cells, average of the rounds): under 300 nM | IC50 [1, 15]: 0.16 µM | IC50 [1, 16]: 0.26 µM | anti-SARS-CoV-2 activity (in words) [1]: highly effective | EC50 ([3]; MRC5): < 0.1 µM | EC50 [3, 19]: 0.0511 µM | activity against HCoV-229E (in words) [3]: highly effective | EC50 ([4]; Betacoronavirus 1, OC43, MRC5): < 0.1 µM | EC50 [4, 20]: 0.126 µM | activity against HCoV-OC43 (in words) [4]: highly effective | CC50 at 24 h ([2]; CC50, Round 1): 2.14 µM | CC50 at 24 h ([2]; CC50, Round 2): 6.22 µM | Clinical Exposure [8]: 0.046 µM | CC50 at 96 h [6, 21]: 0.205 µM | CC50 at 120 h [6, 21]: 0.167 µM

CCN(CC)CCCC(C)Nc1ccnc2cc(Cl)ccc12 (stereo not shown) [Chloroquine]
IC50 [1, 14]: 11.3 µM | IC50 [1, 15]: 12 µM | IC50 [1, 16]: 9.8 µM | CC50 ([12]; CC50, Round 1): 128 µM | CC50 ([12]; CC50, Round 2): > 150 µM | CC50 ([12]; CC50, Table 2 test): > 150 µM

CC(C)C[C@H](NC(=O)CNC(=O)c1cc(Cl)ccc1Cl)B(O)O [Ixazomib]
IC50 [1, 17]: 11.7 µM | anti-SARS-CoV-2 activity (in words) [1]: showed efficacy in controlling viral load | CC50 at 24 h ([2]; CC50, Round 2): > 50 µM

O=C(O)c1ccccc1Nc1cccc(OCc2ccc3ccccc3n2)c1 [SR-2640 hydrochloride]
IC50 [1, 14]: 24.2 µM | anti-SARS-CoV-2 activity (in words) [1]: did not result in a meaningful effect on viral production | CC50 at 24 h ([2]; CC50, Table 2 test): > 50 µM

C#CCC(Cc1cnc2nc(N)nc(N)c2n1)c1ccc(C(=O)N[C@@H](CCC(=O)O)C(=O)O)cc1 (stereo partly shown) [Pralatrexate]
IC50 [13]: 0.008 µM
